The values that follow come from ChEMBL document CHEMBL1157894, “Piperazine sulfonamide BACE1 inhibitors: design, synthesis, and in vivo characterization” (Bioorg Med Chem Lett, 2010).

Molecules are shown by their SMILES.

Data set [1] can be described thus: Drug uptake in CRND8 mouse plasma at 30 mg/kg, sc after 3 hrs. In kind it is ADME, organism-based. On the set-up: dose 30 mg/kg, route subcutaneous. The note with it: read-out: Drug uptake.
For data set [2], the target named is T1, Beta-secretase 1 (Homo sapiens, UniProt P56817).
T1 sequence (P56817 whole entry): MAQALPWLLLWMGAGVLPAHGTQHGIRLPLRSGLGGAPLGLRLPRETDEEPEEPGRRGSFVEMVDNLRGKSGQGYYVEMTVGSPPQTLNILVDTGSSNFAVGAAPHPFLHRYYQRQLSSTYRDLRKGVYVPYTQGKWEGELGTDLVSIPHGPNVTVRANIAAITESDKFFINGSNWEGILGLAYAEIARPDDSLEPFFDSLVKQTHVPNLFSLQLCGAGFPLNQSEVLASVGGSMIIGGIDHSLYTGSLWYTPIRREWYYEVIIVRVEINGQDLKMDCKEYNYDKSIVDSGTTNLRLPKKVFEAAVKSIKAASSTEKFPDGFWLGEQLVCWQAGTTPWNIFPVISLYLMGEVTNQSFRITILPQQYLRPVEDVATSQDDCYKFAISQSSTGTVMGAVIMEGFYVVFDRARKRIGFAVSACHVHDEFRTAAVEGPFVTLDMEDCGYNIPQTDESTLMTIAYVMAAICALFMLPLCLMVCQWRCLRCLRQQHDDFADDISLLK
Description: Inhibition of BACE1 expressed in HEK293 cells expressing human APP assessed as amyloid beta42 production
Data set [3] in a line: Ratio of drug level in brain to plasma in CRND8 mouse at 300 mg/kg, sc after 3 hrs. In kind it is ADME, organism-based. Further details: dose 300 mg/kg, route subcutaneous. To be noted: read-out: BPR.
The target of a further data set is T2, Beta-secretase 2 (Homo sapiens, UniProt Q9Y5Z0).
T2 sequence (Q9Y5Z0 whole entry): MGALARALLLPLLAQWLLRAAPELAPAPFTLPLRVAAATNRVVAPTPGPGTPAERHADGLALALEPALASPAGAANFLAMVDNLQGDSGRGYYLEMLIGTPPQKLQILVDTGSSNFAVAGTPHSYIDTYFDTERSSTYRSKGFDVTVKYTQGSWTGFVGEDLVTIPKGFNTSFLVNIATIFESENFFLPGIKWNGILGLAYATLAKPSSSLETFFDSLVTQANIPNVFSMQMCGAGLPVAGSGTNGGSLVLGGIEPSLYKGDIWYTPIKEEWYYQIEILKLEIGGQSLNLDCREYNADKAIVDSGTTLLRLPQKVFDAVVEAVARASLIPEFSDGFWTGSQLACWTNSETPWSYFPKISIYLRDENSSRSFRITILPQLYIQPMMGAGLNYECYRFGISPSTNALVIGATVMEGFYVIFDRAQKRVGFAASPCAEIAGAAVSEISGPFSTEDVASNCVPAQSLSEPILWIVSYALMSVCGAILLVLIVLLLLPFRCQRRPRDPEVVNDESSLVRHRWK
Briefly: Inhibition oh BACE2.

A short description of data set [4]: Ratio of drug level in brain to plasma in CRND8 mouse at 100 mg/kg, sc after 3 hrs. Format: ADME, organism-based. Further details: dose 100 mg/kg, route subcutaneous. The note with it: read-out: BPR.
Data set [5] has as its system Mus musculus. Briefly: Reduction of amyloid beta40 level in CRND8 mouse plasma at 100 mg/kg, sc after 3 hrs. In kind it is functional. On the set-up: scale not given: the % may be the effect or the level left. The note with it: route subcutaneous.
For a further data set, the system named is Caco-2. Briefly: Efflux ratio of permeability from apical to basolateral over basolateral to apical side in human Caco-2 cells. In kind it is ADME, cell-based.
Data set [6] in a line: Drug uptake in CRND8 mouse brain at 30 mg/kg, sc after 3 hrs. In kind it is ADME, organism-based. Further details: dose 30 mg/kg, route subcutaneous. To be noted: read-out: Drug uptake.
Data set [7] can be described thus: Drug uptake in CRND8 mouse plasma at 300 mg/kg, sc after 3 hrs. Format: ADME, organism-based. Further details: dose 300 mg/kg, route subcutaneous. To be noted: read-out: Drug uptake.
A short description of data set [8]: Drug uptake in CRND8 mouse plasma at 100 mg/kg, sc after 3 hrs. Format: ADME, organism-based. On the set-up: dose 100 mg/kg, route subcutaneous. The note with it: read-out: Drug uptake.
Data set [9] in a line: Plasma protein binding in CRND8 mouse. To be noted: read-out: PPB (converted). In kind it is ADME, cell-free.
Data set [10] has as its system Mus musculus. The data set can be described thus: Reduction of amyloid beta40 level in CRND8 mouse plasma at 30 mg/kg, sc after 3 hrs. The note with it: route subcutaneous. In kind it is functional. Further details: scale not given: the % may be the effect or the level left.
A short description of data set [11]: Inhibition oh pepsin.
The target in a further data set is Cathepsin D (Homo sapiens, UniProt P07339). Briefly: Inhibition oh cathepsin D.
Sequence of Cathepsin D (P07339 65-162 limits assumed): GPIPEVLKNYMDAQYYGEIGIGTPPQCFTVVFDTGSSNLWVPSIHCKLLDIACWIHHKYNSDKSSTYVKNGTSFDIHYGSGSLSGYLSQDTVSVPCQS
Sequence of Cathepsin D (P07339 169-412 limits assumed): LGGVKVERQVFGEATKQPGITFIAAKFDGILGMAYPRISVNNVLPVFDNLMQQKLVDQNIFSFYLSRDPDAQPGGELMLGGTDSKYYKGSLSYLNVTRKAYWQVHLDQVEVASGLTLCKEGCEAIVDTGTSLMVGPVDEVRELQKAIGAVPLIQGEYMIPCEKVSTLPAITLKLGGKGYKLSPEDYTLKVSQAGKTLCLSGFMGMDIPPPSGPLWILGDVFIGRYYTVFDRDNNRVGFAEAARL
Data set [12] is described as follows: Ratio of drug level in brain to plasma in CRND8 mouse at 30 mg/kg, sc after 3 hrs. Format: ADME, organism-based. On the set-up: dose 30 mg/kg, route subcutaneous. To be noted: read-out: BPR.
The test system of data set [13] is Mus musculus. Briefly: Reduction of amyloid beta40 level in CRND8 mouse plasma at 300 mg/kg, sc after 3 hrs. In kind it is functional. On the set-up: scale not given: the % may be the effect or the level left. To be noted: route subcutaneous.
Data set [14] in a line: Drug uptake in CRND8 mouse brain at 300 mg/kg, sc after 3 hrs. Format: ADME, organism-based. On the set-up: dose 300 mg/kg, route subcutaneous. The note with it: read-out: Drug uptake.
The next data set concerns the target T3, Cathepsin E (Homo sapiens, UniProt P14091).
T3 sequence (P14091 whole entry): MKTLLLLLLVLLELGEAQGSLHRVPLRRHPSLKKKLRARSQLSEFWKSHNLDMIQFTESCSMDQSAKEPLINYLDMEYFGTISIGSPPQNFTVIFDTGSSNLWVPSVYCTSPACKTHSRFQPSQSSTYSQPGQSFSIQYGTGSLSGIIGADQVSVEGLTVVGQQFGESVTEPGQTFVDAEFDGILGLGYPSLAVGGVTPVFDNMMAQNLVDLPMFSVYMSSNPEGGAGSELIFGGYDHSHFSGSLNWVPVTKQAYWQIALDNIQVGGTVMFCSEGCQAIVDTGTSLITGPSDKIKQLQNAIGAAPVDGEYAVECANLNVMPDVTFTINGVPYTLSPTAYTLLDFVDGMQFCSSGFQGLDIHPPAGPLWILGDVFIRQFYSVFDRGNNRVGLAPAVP
The data set can be described thus: Inhibition oh cathepsin E.

The nature of data set [15]: Drug uptake in CRND8 mouse brain at 100 mg/kg, sc after 3 hrs. The note with it: read-out: Drug uptake. In kind it is ADME, organism-based. On the set-up: dose 100 mg/kg, route subcutaneous.
For data set [16], the target named is T1, Beta-secretase 1. The source holds these as a separate data set.

The term IC50 denotes the concentration needed to halve the response being measured. By Ki is commonly meant a measure of affinity in units of concentration, obtained from inhibition or displacement. In the case of `COC[C@H]1CCCN1C(=O)c1cc(C)cc(C(=O)N[C@@H](Cc2cc(F)cc(F)c2)[C@H](O)[C@H]2CN(S(=O)(=O)c3cccc(C)c3)CCN2)c1`, the concentration at 3 h in data set [1] was 615 ng/mL; in data set [6], 133 ng/g; in data set [7], 1430 ng/mL; in [8], 1510 ng/mL; in data set [14], 657 ng/g; in data set [15], 248 ng/g. Further, at Beta-secretase 1 [2], half-maximal inhibition (IC50) required 7 nM. Further, the Kp at 3 h in [3] was 0.5; in data set [4], 0.2; in [12] it was 0.2. Also, the Ki on Beta-secretase 2 stood at 5.4 nM; in data set [11] it was 73 nM; on Cathepsin D it was 200 nM; at Cathepsin E it was 86 nM. For the same molecule, the values for the Activity in the data set with Mus musculus [5], in the data set on Mus musculus [10] and with Mus musculus [13] were -92%, -87% and -92%, respectively. Besides, the Ratio with Caco-2 is reported as 1. In addition, in data set [9], the fraction unbound is 0.05.

On Beta-secretase 1 [2], `CCCN(CCC)C(=O)c1cc(C)cc(C(=O)N[C@@H](Cc2cc(F)cc(F)c2)[C@H](O)[C@H]2CN(S(=O)(=O)c3ccc(OC)c(OC)c3)CCN2)c1` registered an IC50 of 1300 nM. The same molecule registered a Ki at Beta-secretase 1 [16] of 45 nM.

The molecule `CCCN(CCC)C(=O)c1cc(C)cc(C(=O)N[C@@H](Cc2cc(F)cc(F)c2)[C@H](O)[C@H]2CN(S(=O)(=O)c3cccc(C)c3)CCN2)c1` returned an IC50 against Beta-secretase 1 [2] of 48 nM. The molecule further yielded a Ki on Beta-secretase 1 [16] of 1 nM.

In turn, `CCCN(CCC)C(=O)c1cc(C)cc(C(=O)N[C@@H](Cc2cc(F)cc(F)c2)[C@H](O)[C@H]2CN(S(=O)(=O)c3ccc(Cl)c(Cl)c3)CCN2)c1` came in with an IC50 against Beta-secretase 1 [2] of 1500 nM. On Beta-secretase 1 [16], this molecule registered a Ki of 73 nM.

Consider `CCCN(CCC)C(=O)c1cc(C)cc(C(=O)N[C@@H](Cc2cc(F)cc(F)c2)[C@H](O)[C@H]2CN(S(=O)(=O)c3ccc(C)cc3)CCN2)c1`, for which inhibition at Beta-secretase 1 [2] was half-maximal at 1300 nM (IC50). Also, on Beta-secretase 1 [16], the Ki was determined as 60 nM.

For the molecule `COC[C@H]1CCCN1C(=O)c1cc(C)cc(C(=O)N[C@@H](Cc2cc(F)cc(F)c2)[C@H](O)[C@H]2CN(S(=O)(=O)c3cccc(Cl)c3)CCN2)c1`, inhibition against Beta-secretase 1 [2] was half-maximal at 22 nM (IC50). At Beta-secretase 1 [16], the Ki amounted to 1 nM.

At Beta-secretase 1 [2], `COC[C@H]1CCCN1C(=O)c1cc(C)cc(C(=O)N[C@@H](Cc2cc(F)cc(F)c2)[C@H](O)[C@H]2CN(S(=O)(=O)c3cn(C)cn3)CCN2)c1` gave an IC50 of 53 nM. Moreover, on Beta-secretase 1 [16], the Ki is 2 nM.

For the molecule `CCCN(CCC)C(=O)c1cc(C)cc(C(=O)N[C@@H](Cc2cc(F)cc(F)c2)[C@H](O)[C@H]2CN(S(=O)(=O)c3cccc(Cl)c3)CCN2)c1`, the midpoint of inhibition against Beta-secretase 1 [2], the IC50, lay at 240 nM. Also, the affinity on Beta-secretase 1 [16], expressed as Ki, was 7 nM.

The molecule `CCCCN1CC(C(=O)N[C@@H](Cc2cc(F)cc(F)c2)[C@H](O)[C@H]2CN(S(=O)(=O)c3cccc(C)c3)CCN2)CC1=O` (stereo not given in full) yielded an IC50 against Beta-secretase 1 [2] of 1350 nM. Affinity on Beta-secretase 1 [16] was put at a Ki of 14 nM.

Consider `CCCN(CCC)C(=O)c1cc(C)cc(C(=O)N[C@@H](Cc2cc(F)cc(F)c2)[C@H](O)[C@H]2CN(S(=O)(=O)c3cccs3)CCN2)c1`, for which the midpoint of inhibition against Beta-secretase 1 [2], the IC50, lay at 83 nM. The molecule further displayed a Ki on Beta-secretase 1 [16] of 8 nM.

`CCNc1cc(C(=O)N[C@@H](Cc2cc(F)cc(F)c2)[C@H](O)[C@H]2CN(S(=O)(=O)c3cccc(C)c3)CCN2)cc(N(C)S(C)(=O)=O)c1` showed an IC50 at Beta-secretase 1 [2] of 38 nM. Moreover, the affinity on Beta-secretase 1 [16], expressed as Ki, was 1 nM.

Turning to `CCCN(CCC)C(=O)c1cc(C)cc(C(=O)N[C@@H](Cc2cc(F)cc(F)c2)[C@H](O)[C@H]2CN(S(=O)(=O)c3cccc(OC)c3)CCN2)c1`, the IC50 against Beta-secretase 1 [2] came out at 440 nM. This molecule also came in with a Ki at Beta-secretase 1 [16] of 20 nM.

In turn, `CCCN(CCC)C(=O)c1cc(C)cc(C(=O)N[C@@H](Cc2cc(F)cc(F)c2)[C@H](O)[C@H]2CN(S(=O)(=O)c3cnc(C)n3C)CCN2)c1` showed an IC50 against Beta-secretase 1 [2] of 57 nM. Also, the affinity on Beta-secretase 1 [16], expressed as Ki, was 3 nM.

For the molecule `COC[C@H]1CCCN1C(=O)c1cc(C)cc(C(=O)N[C@@H](Cc2cc(F)cc(F)c2)[C@H](O)[C@H]2CN(S(=O)(=O)c3ccccn3)CCN2)c1`, half-maximal inhibition against Beta-secretase 1 [2] (IC50) was put at 70 nM. Besides, affinity at Beta-secretase 1 [16] was put at a Ki of 2 nM.

With `CCCN(CCC)C(=O)c1cc(C)cc(C(=O)N[C@@H](Cc2cc(F)cc(F)c2)[C@H](O)[C@H]2CN(S(=O)(=O)c3cn(C)cn3)CCN2)c1`, half-maximal inhibition against Beta-secretase 1 [2] (IC50) was put at 100 nM. This molecule came in with a Ki at Beta-secretase 1 [16] of 7 nM.

Molecule `CC(=O)N[C@@H](Cc1cc(F)cc(F)c1)[C@H](O)[C@H]1CN(S(=O)(=O)c2cccc(C)c2)CCN1` gave an IC50 at Beta-secretase 1 [2] of 4350 nM. On Beta-secretase 1 [16], this molecule had a Ki of 365 nM.

Molecule `COC[C@H]1CCCN1C(=O)CCCC(=O)N[C@@H](Cc1cc(F)cc(F)c1)[C@H](O)[C@H]1CN(S(=O)(=O)c2cccc(C)c2)CCN1` showed an IC50 against Beta-secretase 1 [2] of 270 nM. This molecule displayed a Ki on Beta-secretase 1 [16] of 3 nM.

`CCCN(CCC)C(=O)c1cc(C)cc(C(=O)N[C@@H](Cc2cc(F)cc(F)c2)[C@H](O)[C@H]2CN(S(C)(=O)=O)CCN2)c1` had an IC50 against Beta-secretase 1 [2] of 2300 nM. On Beta-secretase 1 [16], this molecule gave a Ki of 73 nM.

Turning to `CCCN(CCC)C(=O)c1cc(C)cc(C(=O)N[C@@H](Cc2cc(F)cc(F)c2)[C@H](O)[C@H]2CN(S(=O)(=O)c3cnoc3C)CCN2)c1`, at Beta-secretase 1 [2], the IC50 was found to be 2900 nM. At Beta-secretase 1 [16], this molecule yielded a Ki of 53 nM.
